# Laboratory results as given in patent EP3545756A1, “REGENERATION OF PLANTS IN THE PRESENCE OF INHIBITORS OF THE HISTONE METHYLTRANSFERASE EZH2” (KWS SAAT SE & Co. KGaA, priority 2018, dated 2019).
# Counter-ions that a name gives are not always drawn.
# Experiments:
# sugar beet callus [1] = assay: Shoot formation from sugar beet callus in DZNep-supplemented medium; type: cell-based, Beta vulgaris; conditions: 8 days
# Text: The applied method is based on the publication by Kischenko et al. (2005. Production of transgenetic sugarbeet (Beta vulgaris L.) plants resistant to phosphinothricin. Cell biology international, 29(1), 15-19.). This method relies on the induction of friable callus derived from cotyledons and hypocotyl explants. Method is genotype dependent.
# • 1. Micropropagated shoots of the genotype 9BS0448 were used as starting material. Shoots were multiplied in MS salts supplemented with 30 g/l sucrose and 0.25 mg/l benzyladenine (BAP). • 2. To induce friable callus, leaf explants were isolated from micropropagated shoots and incubated in medium containing MS salts including 15 g/l sucrose and 2 mg/l BAP at 28°C in the dark for 7 weeks.
# • 3. Friable calli of step 2 were harvested and placed in medium containing MS salts, 30 g/l sucrose, 1 mg/l GA3 and 1 mg/l TDZ, and transferred to separate dishes as control. Similar amount of friable calli were harvested and placed in the same medium supplemented with 0.4 mg/l DZNep. • 4. The dishes were incubated under the light/dark regime (16 h/8 h) at 24°C for 8 days. • 5. Developing shoots were counted under a stereomicroscope, in order to estimate the regeneration capacity.
# Sugar beet plants = assay: Plant growth after regeneration from shoots induced with temporary DZNep treatment; type: in vivo, Beta vulgaris; conditions: shoots from DZNep plates transferred into normal growth medium without DZNep, compared with shoots from control plates
# Text: Beside the increased capability for shoot formation the inventors observed that shoots harvested from the control plates and from the plates supplied with DZNep and subsequently transferred into the container with normal growth medium (without DZNep), developed to plant with different biomass and vitality. […] Thus, the DZNep treatment affects also positively the plant growth after regeneration.
# sugar beet callus [2] = assay: Shoot formation after particle bombardment of sugar beet callus; type: cell-based, Beta vulgaris
# Method: • 1. Friable calli were produced as described above in steps 1 and 2 of Example 1. • 2. An osmotic treatment was carried out by incubating the harvested calli in a medium containing MS salts, 30 g/l sucrose,1 mg/l GA3,1 mg/l Thidiazuron (TDZ),10 g/l agar, pH 6.0, 36 g/l mannitol and 36 g/l sorbitol for 2.5 h at room temperature in the dark. • 3. Preparation and DNA coating of the gold particles was done by standard procedures, as describe in the PDS-1000/He instruction manual. The plasmid pZFNnptll with the red fluorescent marker, tdT, (see Figure 2) was coprecipitated with gold particles. • 4. Calli were bombarded with a PDS-1000/He unit (Bio-Rad), using 30 ng gold particles coated with 500 ng DNA per shot. The rupture pressure was 450 psi and the target tissue was placed at 9 cm distance from the stopping screen. • 5. After bombardment, aliquots of calli tissue were incubated in medium containing MS salts, 30 g/l sucrose, 1 mg/l GA3 and 1 mg/l TDZ, with and without 0.4 mg/l DZNep, in light/dark (16h/8h), at 24 °C for 10 days on separate plates. As a control for standard regeneration, non-bombarded aliquots of calli were treated in the osmotic medium and directly transferred to above medium without DZNep. Shoot number was scored by using a standard binocular.
smiles,measurement,setting,value
"Nc1nccc2c1ncn2[C@@H]1C=C(CO)[C@@H](O)[C@H]1O [DZNep, 3-Deazaneplanocin A hydrochloride]",mean value of shoots per 1 g callus tissue,"sugar beet callus [1]; 0.4 mg/l DZNep in shoot induction medium, genotype 9BS0448, 24°C, light/dark 16 h/8 h, control 13.9",27.1 shoots per 1 g callus tissue
same,increase of shoots per 1 g callus tissue compared to control,sugar beet callus [1]; 0.4 mg/l DZNep versus control without DZNep,95%
same,plant biomass and vitality after regeneration,Sugar beet plants,significantly bigger and more vital
same,increase of shoots per plate compared to the bombarded control,sugar beet callus [2]; bombarded calli with 0.4 mg/l DZNep versus bombarded control with standard medium,207%
same,increase of shoots per plate compared to the non-bombarded control,sugar beet callus [2]; bombarded calli with 0.4 mg/l DZNep versus non-bombarded control without DZNep,108%
same,mean value of shoots per plate,"sugar beet callus [2]; bombarded calli, 0.4 mg/l DZNep in medium, 10 days, 24 °C, non-bombarded control 4, bombarded control 2.7",8.3 shoots per plate
